From US7964701B2, “Alpha-fetoprotein peptides” (Albany Medical College, priority 2006, dated 2011)
“Also recorded” adds a separate entry of the source.

Tests used:
[1] = test system: E2-stimulated growth of mouse uterus; assay: Immature mouse uterine growth assay; type: in vivo; conditions: 1 μg/mouse intraperitoneally
Text: The anti-breast cancer activity of the linear and cyclic 8-mer and 9-mer AFP-derived peptides is well-documented using the immature mouse uterine growth assay and the human breast cancer xenograft assay; there is a strong correlation between the results of these two assays. To evaluate peptide-induced inhibition by the peptide of the present invention of estrogen-stimulated proliferation of normal tissue, the immature mouse uterine growth assay was utilized. Briefly, 13-15 day-old Swiss/Webster female mice, 6-8 g in body weight, were distributed into treatment groups of 5 mice per group so that each group contained animals of the same range of body weight. The peptide of the invention was injected i.p., s.c., or p.o. into the mice. One hour later, estradiol (E2) or vehicle control for E2 was injected i.p. Twenty-two hours after the second injection, uteri were harvested, trimmed free of mesenteries, and immediately weighed. The uterine weights were normalized to mouse body weights to compensate for differences in body weight among litters of the same age. Experiments employed a minimum of five mice per group and the mean normalized uterine weight±SE for each group was calculated. Percent growth inhibition in a test group was calculated from normalized uterine wet weights as described below.
Differences between groups were evaluated, employing the nonparametric Wicoxon ranks sum test. In all cases, growth inhibitions that were greater than 25% were significant at P≦0.05.
In other experiments, peptide analogs comprising the sequences TOVN SEQ ID NO.: 3) and TPVN (SEQ ID NO.: 2) were assessed for their ability to inhibit E2-stimulated growth of mouse uterus after intraperitoneal and oral administration.
The ability to inhibit E2-stimulated growth of normal mouse uterus was used as a screening assay for biological activity of AFPep analogs. In general, inhibitory activity≧20% is considered to be biologically significant. Each analog's inhibitory effect on E2-stimulated growth was compared to AFPep (a positive control) and to PGVGQ (SEQ ID NO.: 44)(a negative control). PGVGQ (SEQ ID NO.: 44) (amino acids 478-482 of AFP) is a portion of the primary structure of AFP near to the anti-cancer active site of AFP and is comprised of amino acids (P, V, and G) that are important components of AFPep. A scrambled analog of AFPep was not used because some scrambled peptides retain low biological activity (data not shown). In Table 3, bold letters denote the sequences containing a putative Type I beta-turn, which was postulated to be necessary for antiestrogenic activity.

[2] = test system: E2-stimulated growth of mouse uterus; conditions: Mesfin et al. / earlier studies; cited from earlier work

Q: Which results are given for “MTPVNPG [7-mer peptide earlier reported by Mesfin et al, reference compound]”?
A: Inhibition ± S.E, % Immature mouse uterine growth Intraperitoneal [1]: 18 ± 1%; antiestrogenic activity (inhibition of E2-stimulated uterine growth), in words ([1]; Table 3 discussion): significantly less activity; antiestrogenic activity reported in earlier studies [2]: substantially reduced antiestrogenic properties; also recorded: little antiestrogenic activity
